# Experiments:
# [1] = Cytotoxicity against human HePAD38 cells assessed as reduction in cell viability by XTT assay; type: functional
# [2] = test system: Hepatitis B virus; test: Antiviral activity against Hepatitis B virus infected in human HePAD38 cells assessed as inhibition of viral DNA replication by qPCR analysis; type: functional, organism-based
# [3] = test system: Hepatitis B virus; test: Antiviral activity against HBV infected in human HePAD38 cells assessed as reduction in intracellular core HBV DNA replication by Southern blot analysis; type: functional, organism-based
# [4] = Cytotoxicity against human HePAD38 cells assessed as reduction in cell viability incubated for 72 hrs by MTT assay; type: functional
# [5] = Antiviral activity against HBV infected in SRluc-HBc6 cells; type: functional, cell-based; conditions: Hepatitis B virus
# [6] = Cytotoxicity against SRluc-HBc6 cells (unknown origin); type: functional
# [7] = test system: HepG2; test: Cytotoxicity against human HepG2 cells assessed as reduction in cell viability incubated for 24 hrs by CCK-8 assay; type: functional
# [8] = test system: Hepatitis B virus; test: Antiviral activity against HBV infected in human HepG2 cells assessed as reduction in viral DNA replication; type: functional, organism-based
# [9] = test system: Hepatitis B virus; test: Antiviral activity against HBV infected in human HepG2-hNTCP cells assessed as inhibition of HBsAg formation; type: functional, organism-based
# [10] = test system: HepG2; test: Cytotoxicity against human HepG2 cells assessed as reduction in cell growth; type: functional
# [11] = Cytotoxicity against human HepDE19 cells; type: toxicity, cell-based
# [12] = test system: HepG2; test: Cytotoxicity against human HepG2 cells by XTT assay; type: functional
# [13] = test system: Hepatitis B virus; test: Antiviral activity against Hepatitis B virus assessed as inhibition of HbsAg level
# [14] = test system: Hepatitis B virus; test: Antiviral activity against Hepatitis B virus assessed as inhibition of HbeAg level
# [15] = test system: Hepatitis B virus; test: Antiviral activity against Hepatitis B virus infected in HepDE19 cells assessed as inhibition of viral replication; type: functional, organism-based
structure (smiles),measurement,setting,value
Cc1c(C(=O)Nc2ccccc2)sc(N)c1C(N)=O,CC50,[1],> 300 µM
same,EC50,[2],3.6 µM
NC(=O)c1ccc(N)nc1 [6-AMINONICOTINAMIDE],EC50,[3],23.9 µM
same,CC50,[4],> 500 µM
CC1=C[C@@H]2C(=O)[C@]3(C=C(C)[C@H](O)[C@@]3(O)[C@@H]1O)[C@H](C)C[C@@H]1[C@H]2C1(C)C,EC50,[5],8.9 µM
same,CC50,[6],> 100 µM
CC(=O)Oc1ccccc1C(=O)Nc1ncc([N+](=O)[O-])s1 [NITAZOXANIDE],CC50,[7],57 µM
same,EC50,[8],< 10 µM
CCOC(=O)c1c(CSc2ccccc2)n(C)c2cc(Br)c(O)c(CN(C)C)c12 [UMIFENOVIR],EC50,[5],2.3 µM
same,CC50,[6],58.4 µM
CCCCC1=NC2(CCCC2)C(=O)N1Cc1ccc(-c2ccccc2-c2nnn[nH]2)cc1 [IRBESARTAN],EC50,[9],35 µM
same,CC50,[10],287 µM
O=C(CN(c1cc(C(F)(F)F)ccc1Cl)S(=O)(=O)c1ccccc1)NCc1ccncc1,CC50,[11],> 50 µM
Cc1cc(C2CCCCC2)n(O)c(=O)c1 [CICLOPIROX],EC50,[2],0.88 µM
same,CC50,[12],> 10 µM
C/C=C/C[C@@H](C)[C@@H](O)[C@H]1C(=O)N[C@@H](CC)C(=O)N(C)CC(=O)N(C)[C@@H](CC(C)C)C(=O)N[C@@H](C(C)C)C(=O)N(C)[C@@H](CC(C)C)C(=O)N[C@@H](C)C(=O)N[C@H](C)C(=O)N(C)[C@@H](CC(C)C)C(=O)N(C)[C@@H](CC(C)C)C(=O)N(C)[C@@H](C(C)C)C(=O)N1C [CYCLOSPORINE],IC50,[13],0.372 µM
same,IC50,[14],0.311 µM
Cc1nc2cc(NC(=O)c3ccc(S(=O)(=O)N(C)Cc4ccccc4)cc3)ccc2s1,CC50,[11],2.57 µM
O=C(O)C1CC(OCCOc2ccc(-c3cc(=O)c4cccc(Cl)c4o3)cc2)C1 (configuration not stated),EC50,[15],0.1 µM
same,CC50,[11],0.2 µM
O=c1oc2ccccc2c(O)c1Cc1c(O)c2ccccc2oc1=O [DICUMAROL],CC50,[7],> 800 µM
same,EC50,[8],100 µM

# From ChEMBL document CHEMBL6103548, “Recent advances in screening methods enabling the discovery of novel anti-hepatitis B virus drug candidates” (Eur J Med Chem, 2025)
